Assay results published in PubChem BioAssay (NCI).
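Test compounds were applied to cells in 96-well plates for 48 hours at 5 doses. Abbreviation: GI50, concentration required for 50% inhibition of growth. TGI: total growth inhibition.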

Assays:
Test in all cases: NCI anticancer screen, dose series, 48 h
786-0 renal = tested on: 786-0 renal
A498 renal = tested on: A498 renal
A549 NSCLC = tested on: A549 NSCLC
ACHN renal = tested on: ACHN renal
BT-549 breast = tested on: BT-549 breast
CAKI-1 renal = tested on: CAKI-1 renal
CCRF-CEM leukemia = tested on: CCRF-CEM leukemia
COLO 205 colon = tested on: COLO 205 colon
DU-145 prostate = tested on: DU-145 prostate
EKVX NSCLC = tested on: EKVX NSCLC
HCC-2998 colon = tested on: HCC-2998 colon
HCT-116 colon = tested on: HCT-116 colon
HCT-15 colon = tested on: HCT-15 colon
HOP-62 NSCLC = tested on: HOP-62 NSCLC
HOP-92 NSCLC = tested on: HOP-92 NSCLC
HT29 colon = tested on: HT29 colon
IGROV1 ovarian = tested on: IGROV1 ovarian
K-562 leukemia = tested on: K-562 leukemia
KM12 colon = tested on: KM12 colon
LOX IMVI melanoma = tested on: LOX IMVI melanoma
M14 melanoma = tested on: M14 melanoma
MALME-3M melanoma = tested on: MALME-3M melanoma
MCF7 breast = tested on: MCF7 breast
MDA-MB-231 breast = tested on: MDA-MB-231 breast
MDA-MB-435 = tested on: MDA-MB-435
MOLT-4 leukemia = tested on: MOLT-4 leukemia
NCI-H23 lung = tested on: NCI-H23 lung
NCI-H460 lung = tested on: NCI-H460 lung
NCI-H522 lung = tested on: NCI-H522 lung
NCI/ADR-RES ovarian = tested on: NCI/ADR-RES ovarian
OVCAR-3 ovarian = tested on: OVCAR-3 ovarian
OVCAR-4 ovarian = tested on: OVCAR-4 ovarian
OVCAR-5 ovarian = tested on: OVCAR-5 ovarian
OVCAR-8 ovarian = tested on: OVCAR-8 ovarian
PC-3 prostate = tested on: PC-3 prostate
RPMI-8226 leukemia = tested on: RPMI-8226 leukemia
RXF 393 renal = tested on: RXF 393 renal
SF-268 CNS = tested on: SF-268 CNS
SF-295 CNS = tested on: SF-295 CNS
SK-MEL-2 melanoma = tested on: SK-MEL-2 melanoma
SK-MEL-28 melanoma = tested on: SK-MEL-28 melanoma
SK-MEL-5 melanoma = tested on: SK-MEL-5 melanoma
SN12C renal = tested on: SN12C renal
SNB-19 CNS = tested on: SNB-19 CNS
SNB-75 CNS = tested on: SNB-75 CNS
SW-620 colon = tested on: SW-620 colon
T-47D breast = tested on: T-47D breast
TK-10 renal = tested on: TK-10 renal
U251 CNS = tested on: U251 CNS
UACC-62 melanoma = tested on: UACC-62 melanoma
UO-31 renal = tested on: UO-31 renal

Question: With `Cc1cc(C(=O)NC(C)(C)C)cc(C#Cc2ccc3c4c(oc3c2)C(C)(C)c2cc(NS(C)(=O)=O)ccc2C4=O)n1` as the compound, how does the GI50 (786-0 renal) read?
Answer: 1.7 µM

Question: And the TGI (786-0 renal)?
Answer: 12.5 µM

Question: And the GI50 (A498 renal)?
Answer: 2.1 µM

Question: And the TGI (A498 renal)?
Answer: > 100 µM

Question: And the GI50 (A549 NSCLC)?
Answer: 3.01 µM

Question: And the TGI (A549 NSCLC)?
Answer: > 100 µM

Question: What about the GI50 (ACHN renal) of the same compound?
Answer: 1.78 µM

Question: What about the TGI (ACHN renal) of the same compound?
Answer: > 100 µM

Question: What about the GI50 (BT-549 breast) of the same compound?
Answer: 1.26 µM

Question: And the TGI (BT-549 breast)?
Answer: 8.1 µM

Question: What about the GI50 (CAKI-1 renal) of the same compound?
Answer: 2.51 µM

Question: And the TGI (CAKI-1 renal)?
Answer: > 100 µM

Question: And the GI50 (CCRF-CEM leukemia)?
Answer: 2.12 µM

Question: What about the TGI (CCRF-CEM leukemia) of the same compound?
Answer: > 100 µM

Question: And the GI50 (COLO 205 colon)?
Answer: 1.34 µM

Question: What about the TGI (COLO 205 colon) of the same compound?
Answer: 5.5 µM

Question: And the GI50 (DU-145 prostate)?
Answer: 3.17 µM

Question: And the TGI (DU-145 prostate)?
Answer: > 100 µM

Question: What about the GI50 (EKVX NSCLC) of the same compound?
Answer: 4.98 µM

Question: What about the TGI (EKVX NSCLC) of the same compound?
Answer: > 100 µM

Question: What about the GI50 (HCC-2998 colon) of the same compound?
Answer: 3.06 µM

Question: And the TGI (HCC-2998 colon)?
Answer: > 100 µM

Question: And the GI50 (HCT-116 colon)?
Answer: 1.69 µM

Question: And the TGI (HCT-116 colon)?
Answer: > 100 µM

Question: And the GI50 (HCT-15 colon)?
Answer: 1.93 µM

Question: What about the TGI (HCT-15 colon) of the same compound?
Answer: > 100 µM

Question: What about the GI50 (HOP-62 NSCLC) of the same compound?
Answer: 2.31 µM

Question: And the TGI (HOP-62 NSCLC)?
Answer: > 100 µM

Question: And the GI50 (HOP-92 NSCLC)?
Answer: 0.102 µM

Question: And the TGI (HOP-92 NSCLC)?
Answer: 2.44 µM

Question: What about the GI50 (HT29 colon) of the same compound?
Answer: 1.2 µM

Question: And the TGI (HT29 colon)?
Answer: > 100 µM

Question: What about the GI50 (IGROV1 ovarian) of the same compound?
Answer: 2.59 µM

Question: And the TGI (IGROV1 ovarian)?
Answer: > 100 µM

Question: What about the GI50 (K-562 leukemia) of the same compound?
Answer: 2.31 µM

Question: And the TGI (K-562 leukemia)?
Answer: > 100 µM

Question: What about the TGI (KM12 colon) of the same compound?
Answer: 40.7 µM

Question: And the GI50 (LOX IMVI melanoma)?
Answer: 2.59 µM

Question: What about the TGI (LOX IMVI melanoma) of the same compound?
Answer: > 100 µM

Question: And the GI50 (M14 melanoma)?
Answer: 1.26 µM

Question: What about the TGI (M14 melanoma) of the same compound?
Answer: 18.6 µM

Question: What about the GI50 (MALME-3M melanoma) of the same compound?
Answer: 1.53 µM

Question: And the TGI (MALME-3M melanoma)?
Answer: > 100 µM

Question: And the GI50 (MCF7 breast)?
Answer: 1.76 µM

Question: What about the TGI (MCF7 breast) of the same compound?
Answer: > 100 µM

Question: And the GI50 (MDA-MB-231 breast)?
Answer: 3.49 µM

Question: What about the TGI (MDA-MB-231 breast) of the same compound?
Answer: > 100 µM

Question: What about the GI50 (MDA-MB-435) of the same compound?
Answer: 0.518 µM

Question: What about the TGI (MDA-MB-435) of the same compound?
Answer: 21.1 µM

Question: What about the GI50 (MOLT-4 leukemia) of the same compound?
Answer: 2.39 µM

Question: And the TGI (MOLT-4 leukemia)?
Answer: > 100 µM

Question: What about the GI50 (NCI-H23 lung) of the same compound?
Answer: 2.63 µM

Question: What about the TGI (NCI-H23 lung) of the same compound?
Answer: > 100 µM

Question: What about the GI50 (NCI-H460 lung) of the same compound?
Answer: 2.31 µM

Question: What about the TGI (NCI-H460 lung) of the same compound?
Answer: > 100 µM

Question: And the GI50 (NCI-H522 lung)?
Answer: 4.54 µM

Question: And the TGI (NCI-H522 lung)?
Answer: > 100 µM

Question: What about the GI50 (NCI/ADR-RES ovarian) of the same compound?
Answer: 2.86 µM

Question: What about the TGI (NCI/ADR-RES ovarian) of the same compound?
Answer: > 100 µM

Question: And the GI50 (OVCAR-3 ovarian)?
Answer: 2.82 µM

Question: And the TGI (OVCAR-3 ovarian)?
Answer: 31.8 µM

Question: And the GI50 (OVCAR-4 ovarian)?
Answer: 3.2 µM

Question: What about the TGI (OVCAR-4 ovarian) of the same compound?
Answer: > 100 µM

Question: And the GI50 (OVCAR-5 ovarian)?
Answer: 1.33 µM

Question: And the TGI (OVCAR-5 ovarian)?
Answer: > 100 µM

Question: And the GI50 (OVCAR-8 ovarian)?
Answer: 3.09 µM

Question: And the TGI (OVCAR-8 ovarian)?
Answer: > 100 µM

Question: And the GI50 (PC-3 prostate)?
Answer: 2.96 µM

Question: And the TGI (PC-3 prostate)?
Answer: > 100 µM

Question: And the GI50 (RPMI-8226 leukemia)?
Answer: 1.11 µM

Question: And the TGI (RPMI-8226 leukemia)?
Answer: 4.67 µM

Question: What about the GI50 (RXF 393 renal) of the same compound?
Answer: 0.535 µM

Question: What about the TGI (RXF 393 renal) of the same compound?
Answer: 3.34 µM

Question: And the GI50 (SF-268 CNS)?
Answer: 3.34 µM

Question: And the TGI (SF-268 CNS)?
Answer: > 100 µM

Question: What about the GI50 (SF-295 CNS) of the same compound?
Answer: 2.12 µM

Question: And the TGI (SF-295 CNS)?
Answer: 5.64 µM

Question: And the GI50 (SK-MEL-2 melanoma)?
Answer: 1.98 µM

Question: What about the TGI (SK-MEL-2 melanoma) of the same compound?
Answer: 7.87 µM

Question: What about the GI50 (SK-MEL-28 melanoma) of the same compound?
Answer: 1.93 µM

Question: What about the TGI (SK-MEL-28 melanoma) of the same compound?
Answer: > 100 µM

Question: And the GI50 (SK-MEL-5 melanoma)?
Answer: 1.84 µM

Question: And the TGI (SK-MEL-5 melanoma)?
Answer: 5.31 µM

Question: What about the GI50 (SN12C renal) of the same compound?
Answer: 1.95 µM

Question: What about the TGI (SN12C renal) of the same compound?
Answer: > 100 µM

Question: And the GI50 (SNB-19 CNS)?
Answer: 3.23 µM

Question: What about the TGI (SNB-19 CNS) of the same compound?
Answer: > 100 µM

Question: What about the GI50 (SNB-75 CNS) of the same compound?
Answer: 1.22 µM

Question: And the TGI (SNB-75 CNS)?
Answer: 22.4 µM

Question: And the GI50 (SW-620 colon)?
Answer: 1.03 µM

Question: And the TGI (SW-620 colon)?
Answer: > 100 µM

Question: What about the GI50 (T-47D breast) of the same compound?
Answer: 2.41 µM

Question: What about the TGI (T-47D breast) of the same compound?
Answer: > 100 µM

Question: And the GI50 (TK-10 renal)?
Answer: 3.99 µM

Question: What about the TGI (TK-10 renal) of the same compound?
Answer: > 100 µM

Question: What about the GI50 (U251 CNS) of the same compound?
Answer: 3.1 µM

Question: And the TGI (U251 CNS)?
Answer: > 100 µM

Question: What about the GI50 (UACC-62 melanoma) of the same compound?
Answer: 1.4 µM

Question: And the TGI (UACC-62 melanoma)?
Answer: > 100 µM

Question: What about the GI50 (UO-31 renal) of the same compound?
Answer: 1.2 µM

Question: What about the TGI (UO-31 renal) of the same compound?
Answer: > 100 µM
